In paper PMC8297402, “Trifluoromethyl-substituted 3,5-bis(arylidene)-4-piperidones as potential anti-hepatoma and anti-inflammation agents by inhibiting NF-кB activation” (Journal of Enzyme Inhibition and Medicinal Chemistry, 2021):

Legend:
[1] = test system: RAW264.7 cell; test: MTT toxicity pre-experiment on RAW264.7 macrophagocyte; format: cell-based, mouse; conditions: Mus musculus, RAW264.7, BAPs 5 μM, read-out: Survival rate RAW264.7 cell
Method: Lipopolysaccharide (LPS) is a key constituent of Gram-negative bacterial endotoxin, which is used to induce an inflammatory response in corresponding inflammatory cells. TNF-α and IL-6 are two kinds of representative pro-inflammatory factors, which produced by LPS-stimulated RAW264.7 macrophage. In our pre-experiments, the toxicity against RAW264.7 macrophagocyte for all title compounds was tested by the MTT assay, and the results were listed in Table 2. The survival rates were above 80% for all BAPs (4-30) at the concentration of 5.0 μM.

[2] = Modified MTT cytotoxicity assay, normal heptical cell line HHL-5; conditions: human, HHL-5 cells (normal hepatic cell line)
[3] = test system: TNF-α; test: ELISA of TNF-α release in LPS-stimulated RAW264.7 cells; format: cell-based, mouse; conditions: Mus musculus, RAW264.7, BAPs (5 μM) + LPS (1 μg/mL), RAW264.7, ELISA; read-out: Inhibition rate TNF-α
Method: (§1) We tested by inhibiting the secretion of TNF-α and IL-6 to better evaluated the anti-inflammatory effects of BAPs. […] Under the stimulation of LPS (1.0 μg/mL) with RAW264.7 cells, the release of TNF-α and IL-6 was detected. Besides, after treated with BAPs (5.0 μM) and LPS (1.0 μg/mL), the release of TNF-α and IL-6 was measured with an ELISA kit (eBioScience, San Diego, California), respectively. In general terms, pyrrolidine dithiocarbamate (PDTC, 30 μM) or BAP (5.0 μM) was used to pretreat cells for 2 h, respectively. Then, LPS (1.0 μg/mL) was added and cells were incubated for another 22 h. Finally, the culture media were centrifuged at 1000 rpm for 10 min, and the expression levels of TNF-α and IL-6 were determined by ELISA.

[4] = test system: A549; test: Modified MTT cytotoxicity assay, A549; conditions: for IC50: Homo sapiens, A549, read-out: Cytotoxicity IC50 A549, MTT, non-small cell lung cancer cell line; for SI (selectivity index) A549: quotient of IC50 for normal (HHL-5) and malignant (A549) cells
Method: (§3) To further verify the anti-tumour activity, one human non-small cell lung cancer cell line (A549), one human ovarian cancer cell line (A2780), and one human normal heptical cell line (HHL-5) were screened by BAPs (4–30) using a modified MTT assay (Supporting Information). DOX and curcumin were selected as positive controls.
(§4) The optical density (OD) value of each well was measured on a
(§5) multi-well plate reader (TECAN, Mӓnnedorf, Switzerland ) at 570 nm.
(§6) Every IC 50 value was the average of three replicates.
(§7) Doxorubicin (DOX) and Curcumin were used as positive controls.

[5] = test system: SMMC-7721; test: Modified MTT cytotoxicity assay, SMMC-7721; format: cell-based, Human; conditions: for IC50: Homo sapiens, SMMC-7721, 24 h, MTT, 24 h incubation, three replicates; for SI (selectivity index) SMMC-7721: quotient of IC50 for normal (LO2) and malignant (SMMC-7721) cells
Method: (§2) The HepG2, SMMC-7721, and LO2 cell lines were maintained at 37 °C, 5% humidified CO2, and 95% atmosphere. Dulbecco's Modified Eagle (DMEM) medium containing 10% foetal bovine serum (FBS) was used for culturing the HepG2 cell line; meanwhile, Roswell Park Memorial Institute (RPMI) 1640 medium containing 10% FBS was used for culturing other cell lines (SMMC-7721, LO2). The HepG2, SMMC-7721 and LO2 cells were seeded in a 96-well plate in 200 μL of medium per well at a density of approximately 8 × 10^3 cells/well and cultured for 24 h, followed by incubation in an incubator of indicated compounds with successive concentrations (10, 5, 2.5, 1.25, 0.625, 0.3125 μg/mL) for 24 h. In the control group, cells were only cultured with culture media. After the media were removed, 20 μL of MTT (5 mg/mL) was added, then cells were incubated for 4 h at 37 °C. […] GraphPad Prism 5 software was used to calculate their IC50 values. Every IC50 value was the average of three replicates. Doxorubicin (DOX) and curcumin were used as positive controls.

[6] = Modified MTT cytotoxicity assay, normal heptical cell line LO2; format: cell-based, human; conditions: human, LO2 cells (normal hepatic cell line), 24 h incubation
Method: as §2

[7] = test system: IL-6; test: ELISA of IL-6 release in LPS-stimulated RAW264.7 cells; format: cell-based, mouse; conditions: Mus musculus, RAW264.7, BAPs (5 μM) + LPS (1 μg/mL), RAW264.7, ELISA; read-out: Inhibition rate IL-6
Method: as §1

[8] = test system: HepG2; test: Modified MTT cytotoxicity assay, HepG2; format: cell-based, Human; conditions: for IC50: Homo sapiens, HepG2, 24 h, MTT, 24 h incubation, three replicates, read-out: Cytotoxicity IC50 HepG2; for SI (selectivity index) HepG2: quotient of IC50 for normal (LO2) and malignant (HepG2) cells
Method: as §2

[9] = test system: A2780; test: Modified MTT cytotoxicity assay, A2780; conditions: for IC50: Homo sapiens, A2780, read-out: Cytotoxicity IC50 A2780, MTT, ovarian cancer cell line; for SI (selectivity index) A2780: quotient of IC50 for normal (HHL-5) and malignant (A2780) cells
Method: as §3, §4, §5, §6, §7

[10] = in vitro; conditions: human

SMILES	viability at 5 µM [1] [%]	IC50 [2] [µM]	inhibition at 5 µM [3] [%]	IC50 [4] [µM]	SI (selectivity index) A549 [4]	IC50 [5] [µM]	SI (selectivity index) SMMC-7721 [5]	melting point [°C]	IC50 at 24 h [6] [µM]	inhibition at 5 µM [7] [%]	IC50 [8] [µM]	SI (selectivity index) HepG2 [8]	IC50 [9] [µM]	SI (selectivity index) A2780 [9]	SI (selectivity), bound stated for A549 and A2780 together ([4]; A549 and A2780 vs HHL-5)	IC50 [10] [µM]
O=C1/C(=C/c2ccccc2C(F)(F)F)CN(S(=O)(=O)c2ccc(Br)cc2)C/C1=C\c1ccccc1C(F)(F)F [BAP 10]	83.8 ± 2.9	14.5 ± 0.1	59.2 ± 2.8	5.01 ± 0.45	2.9	4.7 ± 0.1	3.6	197 to 199	17 ± 0.4	67.8 ± 3.2	14.7 ± 0.1	1.2	2.34 ± 0.39	6.2		
O=C1/C(=C/c2cccc(C(F)(F)F)c2)CN(S(=O)(=O)c2ccc([N+](=O)[O-])cc2)C/C1=C\c1cccc(C(F)(F)F)c1 [BAP 15]	81.9 ± 1.2	5.2 ± 0.3	62.1 ± 0.7	0.13 ± 0.02	40.0	5 ± 0.1	2.5	196 to 198	12.6 ± 0.1	60.8 ± 4.2	2.7 ± 0.1	4.7	0.14 ± 0.02	37.1		
O=C1/C(=C/c2cccc(C(F)(F)F)c2)CN(S(=O)(=O)c2ccc(Br)cc2)C/C1=C\c1cccc(C(F)(F)F)c1 [BAP 19]	81.9 ± 0.6	13.6 ± 0.5	49.2 ± 3.7	0.12 ± 0.01	113.3	7.6 ± 0.4	1.4	135 to 137	11 ± 0.2	56.3 ± 1.3	6.5 ± 0.2	1.7	0.21 ± 0.03	64.8		
COc1cccc2c1C(=O)c1c(O)c3c(c(O)c1C2=O)C[C@@](O)(C(=O)CO)C[C@@H]3O[C@H]1C[C@H](N)[C@H](O)[C@H](C)O1 [DOX, Doxorubicin, reference compound]				0.29 ± 0.07	42.1	~1.7	5.2		8.9 ± 0.5		~1.3	6.8	0.19 ± 0.01	64.2	> 40	12.2 ± 0.4
O=C1/C(=C/c2ccc(C(F)(F)F)cc2)CN(S(=O)(=O)c2ccc(Cl)cc2)C/C1=C\c1ccc(C(F)(F)F)cc1 [BAP 27]	86.4 ± 4.8	9.1 ± 0.2	69.9 ± 2.7	0.14 ± 0.04	65.0	1.8 ± 0.2	8.8	220 to 222	15.8 ± 0.4	67.3 ± 2.2	1.4 ± 0.2	11.3	0.197 ± 0.05	46.2		
